# Counter-ions that a name gives are not always drawn. The source made the active and inactive calls. The rule behind the calls is not given here.
# What was measured:
# K562/Adr [1] = test: Antiproliferative activity against human K562/ADR cells after 72 hrs by CCK8 assay; assay type: functional, cell-based
# K562 [2] = test: Antiproliferative activity against human K562 cells after 72 hrs by CCK8 assay; assay type: functional, cell-based; details: K562, 72 h
# K562 [3] = test: Resistance factor, ratio of IC50 for human K562/ADR cells to IC50 for human K562 cells; assay type: functional
# K562/Adr [4] = test: Cell cycle arrest in human K562/ADR cells assessed as accumulation in S phase at 0.05 uM after 48 hrs by propidium iodide staining based flow cytometry; assay type: functional
# K562/Adr [5] = test: Induction of apoptosis in human K562/ADR cells assessed as live cells at 0.05 uM after 48 hrs by Annexin V-APC/7-AAD staining based flow cytometry (reference value: 91.65%); assay type: functional
# K562/Adr [6] = test: Induction of apoptosis in human K562/ADR cells assessed as early apoptotic cells at 0.05 uM after 48 hrs by Annexin V-APC/7-AAD staining based flow cytometry (reference value: 1.99%); assay type: functional
# K562/Adr [7] = test: Induction of apoptosis in human K562/ADR cells assessed as late apoptotic cells at 0.05 uM after 48 hrs by Annexin V-APC/7-AAD staining based flow cytometry (reference value: 3.89%); assay type: functional
# K562/Adr [8] = test: Induction of apoptosis in human K562/ADR cells assessed as necrotic cells at 0.05 uM after 48 hrs by Annexin V-APC/7-AAD staining based flow cytometry (reference value: 2.47%); assay type: functional
# K562/Adr [9] = test: Induction of apoptosis in human K562/ADR cells assessed as nuclear fragmentation at 0.05 uM after 48 hrs by Hoechst 33342 staining based fluorescent microscopic analysis; assay type: functional, cell-based
# K562/Adr [10] = test: Induction of apoptosis in human K562/ADR cells assessed as chromatin condensation at 0.05 uM after 48 hrs by Hoechst 33342 staining based fluorescent microscopic analysis; assay type: functional, cell-based
# [11] = biological target: T1, Mitogen-activated protein kinase; ERK1/ERK2 (Homo sapiens) (UniProt P27361+P28482); test: Induction of ERK1/2 phosphorylation in human K562/ADR cells at 0.05 uM after 48 hrs by Western blot analysis relative to control; assay type: cell-based
# K562/Adr [12] = test: Effect on total ERK1/2 protein expression level in human K562/ADR cells at 0.05 uM after 48 hrs by Western blot analysis relative to control; assay type: ADME, cell-based
# [13] = biological target: T1, Mitogen-activated protein kinase; ERK1/ERK2 (Homo sapiens); test: Activation of ERK1/2 signalling in human K562/ADR cells assessed as suppression of CDK1 protein expression at 0.05 uM after 48 hrs by Western blot analysis relative to control; assay type: cell-based
# [14] = biological target: T1, Mitogen-activated protein kinase; ERK1/ERK2 (Homo sapiens); test: Activation of ERK1/2 signalling in human K562/ADR cells assessed as suppression of CyclinB1 protein expression at 0.05 uM after 48 hrs by Western blot analysis relative to control; assay type: cell-based
# [15] = biological target: T1, Mitogen-activated protein kinase; ERK1/ERK2 (Homo sapiens); test: Activation of ERK1/2 signalling in human K562/ADR cells assessed as increase in cleaved caspase-3 expression at 0.05 uM after 48 hrs by Western blot analysis relative to control; assay type: cell-based
# [16] = biological target: T1, Mitogen-activated protein kinase; ERK1/ERK2 (Homo sapiens); test: Activation of ERK1/2 signalling in human K562/ADR cells assessed as increase in cleaved caspase-8 expression at 0.05 uM after 48 hrs by Western blot analysis relative to control; assay type: cell-based
# [17] = biological target: T1, Mitogen-activated protein kinase; ERK1/ERK2 (Homo sapiens); test: Activation of ERK1/2 signalling in human K562/ADR cells assessed as increase in cleaved caspase-9 expression at 0.05 uM after 48 hrs by Western blot analysis relative to control; assay type: cell-based
# [18] = biological target: T1, Mitogen-activated protein kinase; ERK1/ERK2 (Homo sapiens); test: Activation of ERK1/2 signalling in human K562/ADR cells assessed as suppression of P-gp expression at 0.05 uM after 48 hrs by Western blot analysis relative to control; assay type: cell-based
# T1 sequence (P27361 whole entry, looked up): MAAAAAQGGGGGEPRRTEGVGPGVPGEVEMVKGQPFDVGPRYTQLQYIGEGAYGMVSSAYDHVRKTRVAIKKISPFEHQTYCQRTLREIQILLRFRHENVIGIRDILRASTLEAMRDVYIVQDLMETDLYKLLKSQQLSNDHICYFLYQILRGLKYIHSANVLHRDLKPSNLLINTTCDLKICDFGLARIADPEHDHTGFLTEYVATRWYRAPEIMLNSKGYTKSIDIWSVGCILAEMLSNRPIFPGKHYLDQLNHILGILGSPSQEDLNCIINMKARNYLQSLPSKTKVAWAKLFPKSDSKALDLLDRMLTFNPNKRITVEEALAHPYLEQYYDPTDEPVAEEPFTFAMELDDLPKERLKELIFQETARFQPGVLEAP
# T1 sequence (P28482 whole entry, looked up): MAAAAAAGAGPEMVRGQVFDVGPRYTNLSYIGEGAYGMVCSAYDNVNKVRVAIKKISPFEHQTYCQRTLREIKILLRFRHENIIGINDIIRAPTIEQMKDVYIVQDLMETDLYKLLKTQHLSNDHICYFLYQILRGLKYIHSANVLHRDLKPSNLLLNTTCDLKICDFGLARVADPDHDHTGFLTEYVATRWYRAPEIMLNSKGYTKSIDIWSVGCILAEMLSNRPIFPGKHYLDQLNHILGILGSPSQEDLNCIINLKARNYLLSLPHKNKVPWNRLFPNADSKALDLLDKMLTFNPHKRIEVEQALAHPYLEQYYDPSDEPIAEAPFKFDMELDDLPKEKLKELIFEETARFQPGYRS
Compound,IC50 (K562/Adr [1]),IC50 (K562 [2]),Ratio IC50 (K562 [3]),other results
COc1cc([C@@H]2c3cc4c(cc3[C@H](OC(=O)c3cccnc3)[C@H]3COC(=O)[C@H]23)OCO4)cc(OC)c1OC [4-O-PODOPHYLLOTOXINYL-NICOTINATE],137 nM,33 nM,4.151,–
COc1cc([C@@H]2c3cc4c(cc3[C@H](O)[C@H]3COC(=O)[C@H]23)OCO4)cc(OC)c1OC [PODOFILOX],25 nM,–,4.166,Activity (K562/Adr [4]): Active; Activity (K562/Adr [5]): 40.83%; Activity (K562/Adr [6]): 7.94%; Activity (K562/Adr [7]): 43.5%; Activity (K562/Adr [8]): 7.73%; Activity (K562/Adr [9]): Active; Activity (K562/Adr [10]): Active; fold change (FC) [11]: 0.63; fold change (FC) (K562/Adr [12]): 0.88; fold change (FC) [13]: 0.4; fold change (FC) [14]: 0.02; fold change (FC) [15]: 0.76; fold change (FC) [16]: 0.7; fold change (FC) [17]: 0.74; fold change (FC) [18]: 0.03
COc1ccc(C(=O)O[C@H]2c3cc4c(cc3[C@@H](c3cc(OC)c(OC)c(OC)c3)[C@H]3C(=O)OC[C@@H]32)OCO4)cn1,123 nM,58 nM,2.12,–
COc1cc([C@@H]2c3cc4c(cc3[C@H](OC(=O)c3ccncc3)[C@H]3COC(=O)[C@H]23)OCO4)cc(OC)c1OC [4-O-PODOPHYLLOTOXINYL-ISONICOTINATE],48 nM,11 nM,4.363,–
COc1cc([C@@H]2c3cc4c(cc3[C@H](OC(=O)c3ccnc(Br)c3)[C@H]3COC(=O)[C@H]23)OCO4)cc(OC)c1OC,58 nM,23 nM,2.521,–
COc1cccc2c1C(=O)c1c(O)c3c(c(O)c1C2=O)C[C@@](O)(C(=O)CO)C[C@@H]3O[C@H]1C[C@H](N)[C@H](O)[C@H](C)O1 [DOXORUBICIN HYDROCHLORIDE],18800 nM,220 nM,–,–

# Source: ChEMBL document CHEMBL4477261, “Design, synthesis and evaluation of the multidrug resistance-reversing activity of pyridine acid esters of podophyllotoxin in human leukemia cells” (Bioorg Med Chem Lett, 2016)
